Tests used:
FtsZ RNA = experiment: in vitro cleavage of FtsZ RNA by DNA enzyme in a cell-free system; assay type: biochemical; conditions: 37° C., 100 nM template FtsZ RNA, 100 μM DNA enzyme, 10 mM MgCl2, pH 7.5; products 368 nt and 857 nt
Procedure: Lane 1 is a control reaction incubated for 2 hrs in the absence of DNA enzyme. S: substrate; P1 (857 nt) and P2 (368 nt): DNA enzyme digestion products.
The ability of the pssXGb(FtsZ-DZ) expression vector of the present invention to produce DNA enzyme molecules in bacterial cells was tested by evaluating the cleavage activity of the designed DNA enzyme in a cell-free system. The 1225 nt FtsZ RNA, produced by in vitro transcription, is used as a substrate and the cleavage assay is carried out at 37° C. for various period of time as indicated in a 10 μl reaction containing 10 mM MgCl2, 50 mM Tris-HCl, pH 7.5, 100 nM template FtsZ RNA, 100 μM DNA enzyme, and 10 units RNasin.

K12 = experiment: inhibition of bacterial growth by peptide-ODN conjugate (viable cell count); assay type: cell-based, E. coli; conditions: conjugate 4 μM, 40 μM or 400 μM, 37° C., 2 hours
Procedure: The inhibition of bacterial growth by peptide-[…] conjugate was evaluated by examining the effect of conjugate dose on the ability of conjugate to inhibit K12 growth. In this study, a peptide-ODN conjugate having the sequence
was added to the 1/50 diluted O/N K12 cell cultures, and final concentration of 4 μM, 40 μM, or 400 μM, with addition of equal volume water as a negative control, and incubated with shaking at 37° C. Immediately after, diluting the O/N culture 1/50, peptide-ODN conjugate was added to final concentration of 4 μM, 40 μM, or […], with addition of equal volume water as a negative control, and incubated with shaking at 37° C. After 2 hours, growth was measured by viable cell count by diluting the cultures and plating in triplicate on LB plates. […] Reduction of Mouse Bacterial Load in Blood by Peptide-ODN Conjugate.

SM101 = experiment: inhibition of bacterial growth by ODN (OD600 or viable cell count); assay type: cell-based, E. coli; conditions: ODN 40 μM or 400 μM, 30° C., 2, 4 or 6 h
Procedure: Immediately after diluting the O/N cultures 1/50, ODN was added to final concentrations of 4 uM, 40 μM or 400 μM with equal volume water as a negative control, and incubated with shaking at 30° C. After 2, 4 or 6 h, the growth was measured by viable cell count, which was done by diluting the cultures and plating on LB plates with streptomycin.
The inhibition of bacterial growth by ODN was evaluated by examining the effect of ODN dosage on SM101 growth. In this study, an ODN having the sequence CTC ATA CTC T was added to the 1/50 diluted O/N SM101 cell cultures, at final concentration of 40 μM or […] with addition of equal volume water as a negative control, and incubated with shaking at 30° C. After 2, 4 or 6 h, the growth was measured by either the optical density at 600 nm (OD600) or viable cell count, which was done by diluting the cultures and plating them in triplicate on LB plates with streptomycin.

E. coli XL10-gold(kan) = experiment: growth of XL10-gold(kan) transformed with ODN expression plasmid; assay type: cell-based; conditions: XL10-gold(kan) transformants; LB with chloramphenicol, 37° C. O/N
Procedure: The transformants were plated on LB media with chloramphenicol and incubated at 37° C.
The antibacterial efficacy of the ODN CYGX080103 was further evaluated in two separate experiments. The first was designed to examine the conditionally lethal effect of the ODN expression plasmid in the host cell DH5αPro, the bacterial strain employed in the library screening. The second experiment was designed to study the effect of the ODN expression plasmid on other bacterial strains. In the first study, the ODN expression plasmid and the plasmid without ODN insert as negative control were transformed into DH5αPro and plated onto LB media with or without 200 ng/ml aTc. […] DH5αPro cells carrying the plasmid without the ODN insert grow on both media (FIG. 10B). In the second study, the ODN expression plasmid and the plasmid without ODN insert were transformed into E. coli XL10-gold(kan). The resulted transformants were plated on LB media with chloramphenicol and incubated at 37° C.
In this study, the ODN expression plasmid As080103, having the sequence CYGX080103 listed above, and plasmid pssxGb without ODN insert as negative control, were transformed into E. coli XL10-goldokan). The resulting cell cultures were plated on LB media with chloramphenicol and incubated at 37° C.

DH5αPro = experiment: conditionally lethal effect of ODN expression plasmid in DH5αPro on LB media with or without aTc; assay type: cell-based; conditions: DH5αPro carrying the plasmid; with or without 200 ng/ml aTc
Procedure: Colonies were grown in duplicate in LB plates with or without aTc. Positive clone (containing the pssXGb vector including the sequence CYGX080103) is marked by an arrow.
The CYGX080103 plasmid and the plasmid without ODN insert as negative control were transformed into DH5αPro and plated onto LB media with or without 200 ng/ml aTc. […] DH5αPro carrying plasmid without the ODN insert grows on both media (FIG. 10B).
Since the ssDNA expression library was constructed based on a tetracycline inducible vector, bacterial cells containing the ssDNA expression library were plated in duplicate in Luria broth (LB) plates in the presence or absence 200 ng/ml aTc. […] Plasmid DNA was extracted from the positive colony from the library screening, and the insert sequences determined by 3′ end single-pass sequencing. The insert generated by this set of experiments was named CYGX080103, with sequence of:
The antibacterial efficacy of the ODN CYGX080103 was further evaluated in two separate experiments. The first was designed to examine the conditionally lethal effect of the ODN expression plasmid in the host cell DH5αPro, the bacterial strain employed in the library screening. The second experiment was designed to study the effect of the ODN expression plasmid on other bacterial strains. […]

“5′-GTTTCGAAGGCTAGCTACAACGATCATCCAG-3′ (listed as DNA, chemistry not fully specified) [CYGXFtsZDZ, 31 nt 10-23 DNA enzyme targeted against the GU site at position 880 of FtsZ mRNA]” was tested. Which “cleavage of FtsZ RNA” value (FtsZ RNA) did it give?
Its value is “effectively cleave the FtsZ RNA in as short a time as 0.5 hr”.

How did the cell growth inhibited (K12) turn out when “KFFKFFKFFK-CTC ATA CTC T (KFFKFFKFFK peptide conjugated to PNA) [peptide-ODN conjugate, peptide-PNA conjugate]” was run?
Its cell growth inhibited is 82-99.8%.

For “5′(CTC ATA CTC T)3′ (DNA CTCATACTCT; chemistry not given here) [CYGXacpP, ODN targeting the bacterial essential fatty acid biosynthesis gene acpP]”, which cell growth inhibited (SM101) is on record?
Its cell growth inhibited is 86-96%.

B1: 5′-CTTTCAACAGTTTTGATGACCTTTGCTGACCATACAATTGCGATATCGTGGGGAGTGAGAG-3′ (nucleic acid)
DNA: CTTTCAACAGTTTTGATGACCTTTGCTGACCATACAATTGCGATATCGTGGGGAGTGAGAG
modifications: expressed or natural sequence
notes: ODN insert of the positive clone from ssDNA expression library screening
For B1, which “growth on LB media” value (E. coli XL10-gold(kan)) is on record?
The value was “no XL10-gold(kan) carrying ODN expression plasmid grew”.

And the “growth on LB media” value (DH5αPro)?
Its value is “grow normally on the media without aTc but not on media with aTc”.

Source: patent publication US8889397B2, “Nucleotides for prevention and treatment of bacterial and fungal pathologies” (priority 2003, dated 2014)
